According to ChEMBL document CHEMBL5325490, “Lipophilic modification of salirasib modulates the antiproliferative and antimigratory activity” (Bioorg Med Chem, 2023):
Activity calls are given as the source filed them. The calls are words filed in the database; no cut-off is given here.

Tests used:
NCI-H1299 [1] = assay: Antimigratory activity against human H1299 cells assessed as reduction in cell migration at 50 uM incubated for 24 hrs by wound healing assay; format: functional, cell-based
NCI-H1299 [2] = assay: Anti-invasive activity in human H1299 cells assessed as reduction in cell invasion at 50 uM incubated for 24 hrs by transwell migration assay; format: functional, cell-based
T47D = assay: Antiproliferative activity against human T47D cells assessed as inhibition of culture growth incubated for 48 hrs by SRB assay; format: functional
HBL-100 = assay: Antiproliferative activity against human HBL-100 cells assessed as inhibition of culture growth incubated for 48 hrs by SRB assay; format: functional
SW1573 = assay: Antiproliferative activity against human SW1573 cells assessed as inhibition of culture growth incubated for 48 hrs by SRB assay; format: functional
HeLa = assay: Antiproliferative activity against human HeLa cells assessed as inhibition of culture growth incubated for 48 hrs by SRB assay; format: functional
A549 = assay: Antiproliferative activity against human A549 cells assessed as inhibition of culture growth incubated for 48 hrs by SRB assay; format: functional
NCI-H1299 [3] = assay: Antiproliferative activity against human H1299 cells assessed as inhibition of culture growth incubated for 48 hrs by SRB assay; format: functional
Plasmodium falciparum = assay: Antimalarial activity against Plasmodium falciparum assessed as inhibition of parasite growth measured after 72 hrs by NLuc method; format: functional, organism-based

How did the Activity (NCI-H1299 [1]) turn out when `CC(C)=CCC/C(C)=C/Cn1cc(CSc2ccccc2C(=O)O)nn1` was run?
Its Activity is “inactive”.

With `CCCCCCCCCCSc1ccccc1C(=O)O` as the molecule, how does the Activity (NCI-H1299 [2]) read?
Its Activity is “inactive”.

What about the Activity (NCI-H1299 [1]) of the same molecule?
Its Activity is “Active”.

For `CC[C@@]1(O)C(=O)OCc2c1cc1n(c2=O)Cc2cc3ccccc3nc2-1` [CAMPTOTHECIN], which GI50 (T47D) is on record?
Its GI50 is 2 µM.

And the GI50 (HBL-100)?
The GI50 was 0.2 µM.

What about the GI50 (SW1573) of the same molecule?
The GI50 was 0.3 µM.

What about the GI50 (HeLa) of the same molecule?
Its GI50 is 0.6 µM.

How did the GI50 (A549) turn out when `CC(C)=CCC/C(C)=C/CC/C(C)=C/Cn1cc(CSc2ccccc2C(=O)O)nn1` was run?
Its GI50 is 40 µM.

What about the GI50 (T47D) of the same molecule?
Its GI50 is 52 µM.

And the GI50 (HBL-100)?
Its GI50 is 33 µM.

What about the GI50 (SW1573) of the same molecule?
Its GI50 is 40 µM.

What about the GI50 (NCI-H1299 [3]) of the same molecule?
Its GI50 is 102 µM.

And the GI50 (HeLa)?
Its GI50 is 33 µM.

Which results are given for `CC(C)=CCC/C(C)=C/CSc1ccccc1C(=O)O`?
Activity (NCI-H1299 [2]): Active; Activity (NCI-H1299 [1]): Active

With `CCCCCCCCCCCCCCCCn1cc(CSc2ccccc2C(=O)O)nn1` as the molecule, how does the GI50 (A549) read?
The GI50 was 9.2 µM.

And the GI50 (T47D)?
The GI50 was 20 µM.

What about the GI50 (HBL-100) of the same molecule?
Its GI50 is 14 µM.

And the GI50 (SW1573)?
The GI50 was 9.3 µM.

And the GI50 (NCI-H1299 [3])?
Its GI50 is 27 µM.

What about the GI50 (HeLa) of the same molecule?
The GI50 was 6.9 µM.

Which GI50 (A549) does the source give for `CCCCCCCCn1cc(CSc2ccccc2C(=O)O)nn1` here?
The GI50 was 61 µM.

What about the GI50 (T47D) of the same molecule?
Its GI50 is 93 µM.

What about the GI50 (HBL-100) of the same molecule?
Its GI50 is 40 µM.

What about the Activity (NCI-H1299 [1]) of the same molecule?
Its Activity is “inactive”.

What about the GI50 (SW1573) of the same molecule?
Its GI50 is 47 µM.

What about the GI50 (NCI-H1299 [3]) of the same molecule?
The GI50 was over 100 µM.

What about the GI50 (HeLa) of the same molecule?
The GI50 was 39 µM.

Which results are given for `C/C(=C\Cn1cc(CSc2ccccc2C(=O)O)nn1)CCC[C@H](C)CCC[C@H](C)CCCC(C)C`?
GI50 (A549): 5.4 µM; GI50 (T47D): 9.6 µM; GI50 (HBL-100): 10 µM; GI50 (SW1573): 5.8 µM; GI50 (NCI-H1299 [3]): 59 µM; IC50 (Plasmodium falciparum): 9.75 µM; GI50 (HeLa): 4.3 µM

For `COc1cc([C@@H]2c3cc4c(cc3[C@@H](O[C@@H]3O[C@@H]5CO[C@@H](C)O[C@H]5[C@H](O)[C@H]3O)[C@H]3COC(=O)[C@H]23)OCO4)cc(OC)c1O` [ETOPOSIDE], which GI50 (A549) is on record?
The GI50 was 1.5 µM.

And the GI50 (T47D)?
Its GI50 is 22 µM.

And the GI50 (HBL-100)?
The GI50 was 1.4 µM.

What about the GI50 (SW1573) of the same molecule?
The GI50 was 14 µM.

What about the GI50 (HeLa) of the same molecule?
Its GI50 is 3.3 µM.

For `CCCCCCCCSc1ccccc1C(=O)O`, which Activity (NCI-H1299 [2]) is on record?
Its Activity is “Active”.

And the Activity (NCI-H1299 [1])?
The Activity was “Active”.

For `CC(C)=CCC/C(C)=C/CC/C(C)=C/CSc1ccccc1C(=O)O` [SALIRASIB], which GI50 (A549) is on record?
Its GI50 is 34 µM.

What about the GI50 (T47D) of the same molecule?
Its GI50 is 42 µM.

And the GI50 (HBL-100)?
Its GI50 is 22 µM.

What about the GI50 (SW1573) of the same molecule?
Its GI50 is 41 µM.

And the GI50 (NCI-H1299 [3])?
The GI50 was 85 µM.

And the GI50 (HeLa)?
Its GI50 is 34 µM.

For `C/C(=C\CSc1ccccc1C(=O)O)CCCC(C)CCCC(C)CCCC(C)C` (centres undefined), which GI50 (A549) is on record?
The GI50 was 14 µM.

And the GI50 (T47D)?
Its GI50 is 18 µM.

What about the GI50 (HBL-100) of the same molecule?
The GI50 was 14 µM.

What about the GI50 (SW1573) of the same molecule?
Its GI50 is 15 µM.

And the GI50 (NCI-H1299 [3])?
Its GI50 is over 100 µM.

What about the GI50 (HeLa) of the same molecule?
Its GI50 is 12 µM.

How did the GI50 (A549) turn out when `CC(C)=CCC/C(C)=C/CC/C(C)=C/CC/C(C)=C/CSc1ccccc1C(=O)O` was run?
The GI50 was 38 µM.

And the GI50 (T47D)?
The GI50 was 41 µM.

What about the GI50 (HBL-100) of the same molecule?
The GI50 was 23 µM.

What about the GI50 (SW1573) of the same molecule?
Its GI50 is 37 µM.

And the GI50 (HeLa)?
The GI50 was 29 µM.
